Experimental data published in patent US6995136B1, “Peptide fragments of murine epidermal growth factor as laminin receptor targets” (The Queen's University of Belfast, priority 1998, dated 2006).

How the values were obtained:
[1] = tested on: angiogenesis in the chick; assay: Chick angiogenesis model; assay type: in vivo; conditions: chick
tumour cells = conditions: already known in the field; cited from earlier work
[2] = target: T1, 67 kDa laminin receptor (67-LR) (Homo sapiens, UniProt P08865); assay: 125I-laminin displacement (competition binding) on T47-D or SK HEP-1 cells; conditions: relative to mEGF(33-42); 0.1 nM 125I-laminin, overnight 4° C.
T1 construct: endogenous in cells; host or cells: T47-D or SK HEP-1 cells (whole-cell suspension)
Method: ^125I-laminin was prepared using ^125I-labelled sodium iodide (Amersham, UK) and immobilised chloramine-T (Iodobeads; Pierce, Ill.). Prior to use, the beads were washed with 500 μl phosphate buffer (pH 6.5) to remove excess reagent from the support. These were then allowed to air dry and individual beads added to a solution of carrier free Na^125I, diluted with iodination buffer (phosphate buffer pH 7.4). The beads were allowed to equilibrate for 5 min.
Laminin (10 μg in 10 μl) was then diluted into the iodination buffer and the system incubated at 20° C. for 15 min. The solution was then removed from the reaction vessel and excess Na^125I and unincorporated ^125I2 separated from the iodinated protein by gel filtration on a GF-5 exclusion column (Pierce, Ill.). Iodinated laminin fractions were recovered at a specific activity of approximately 1.2 mCi/mg protein (864 Ci/mmol).
Near confluent cultures of T47-D or SK HEP-1 cells were removed from monolayer with 0.02% EGTA and passed through a G-25 syringe needle to produce single cell suspensions. Aliquots of each cell type (10^6 cells/ml) were dispensed into separate Ependorf tubes (1 ml each) and pelleted. The cells were then resuspended in 1 ml ice-cold RPMI (SK HEP-1) or DMEM (T47-D) containing 0.1% BSA and either laminin or synthetic peptide at the concentrations indicated. Iodinated laminin was then added to each cell suspension to give a final ^125I-laminin concentration of 0.1 nM (approximately 50,000 cpm). These mixtures were incubated overnight at 4° C.
The tubes were then microfuged at 10,000 g and the supernatant removed. After washing the pellet with 500 μl CFS, the remaining radioactivity was determined using a gamma radiation counter. Non-specific binding was determined by incubating cells with a 1000-fold molar excess of unlabelled laminin. All estimations were carried out in triplicate.
IC50 (concentration of unlabelled peptide required to produce 50% inhibition of radioligand binding) and EC50 (effective concentration for 50% inhibition of cell attachment) values were calculated using the Grafit curve-fitting programme (Erithacus Software, London, UK).

[3] = tested on: Endothelial cells (SK HEP-1 and BRCE); assay: Migration assay (colloidal gold track area); assay type: cell-based; conditions: mammalian cell lines
Method: The method used was basically as described by Albrecht-Buehler (1977). Briefly, coverslips (22×22 mm) were treated in 5% detergent (7×; ICN Biomedicals) and washed in alcohol to remove grease. After drying, they were immersed in gelatin solution (Sigma, 300 Bloom; 0.5 g in 300 ml distilled H2O) for 10 min. The coverslips were then dried by placing in a 70° C. oven for 45 min.
Colloidal gold suspension was prepared by adding 11 ml distilled H2O and 6 ml Na2CO3 (36.5 mM) to 1.8 ml AuHCl4 (14.5 mM). The mixture was heated to 95° C. at which point 1.8 ml of freshly prepared 0.1% formaldehyde solution was added; the temperature was maintained at 95° C. A suspension of colloidal gold was formed which was brown to absorbed light and blue to transmitted light.
The gold suspension, was then added to petri dishes containing individual coverslips and the plates incubated at 37° C. for 45 min. After washing with CFS (3×4 ml) to remove unattached gold particles, the coverslips were transferred to 6-well cluster dishes and UV sterilised.
Endothelial cells (SK HEP-1 and BRCE) in culture media (0.3 ml) were seeded onto the coverslips at an approximate density of 5×10^3 cells per well. The cells were allowed to plate down for 2 h at 37° C. after which the treatments were added. Assay systems were maintained for a further 18 h after which the cells were fixed using 3% gluteraldehyde in cacodylate buffer (pH 7.2).
The assays were examined using a Leica DM1RB phase contrast microscope and Q500MC image analysis system incorporating a JVC TK-1280E colour camera (Leica, Milton Keynes, UK). The track images of at least 30 cells were videocaptured and the area (representing migration response) determined for each. Statistical analysis of these areas was then carried out using Macintosh Instat software to perform both Kruskal-Wallis analysis of variance and Mann-Whitney U-tests in order to compare the treatment groups with controls.

C57-BL/6J mice = assay: Murine model of proliferative retinopathy (retinopathy of prematurity, ROP); assay type: in vivo, mouse
Method: Litters of 7 day old C57-BL/6J mice, together with their nursing dams, are exposed to 80% oxygen in an incubator maintained at 23° C. and with a gas exchange of 1.5 L/min for 5 days according to the protocol described by Stitt et al. (1998). On postnatal day 12 (P12) the animals are returned to room air and sacrificed at various times posthyperoxia. Animals are treated with daily i.p. injections of either laminin agonists (10 μg per head per day) or vehicle control. Groups of room air controls are maintained in parallel with hyperoxia-exposed animals. Home Office project and personal licenses are held for this work. All animals are housed and maintained in accordance with the ARVO regulations for animal care in research.
Animals are sacrificed at pre-determined key stages in the vaso-obliteration (P7–P12), ischaemia (P12 onwards) and vaso-proliferative responses (P 12–21). At sacrifice, terminally anaesthetised animals have a single eye enucleated and the retina removed to be snap-frozen for later RNA-extraction (see below). The fellow eye is either perfused with fluorescein dextran or enucleated and fixed in 4% paraformaldehyde for histology, immunohistochemistry and in situ hybridisation.

[4] = tested on: angiogenesis in the chick; conditions: already known in the field; cited from earlier work
[5] = FIG. 1b versus 1a, 10 μg per head per day i.p.

receptor affinity, 125I-laminin displacement (IC50), in words [2]: equipotent
Sequence: CDPGYIGSR [Lam.β-1(925-933), CDPGYIGSR-NH2, synthetic peptide of amino acids 925–933 of the laminin β-1 chain, 67LR agonist, reference compound]
laminin agonist/antagonist character in chick [1]: partial laminin antagonist
tumour establishment in mice (tumour cells): inhibit tumour establishment in mice
67LR agonist/antagonist character in mammalian cell lines [3]: pure agonist
67LR agonist/antagonist character in mammalian cell lines ([3]; listed as laminin β-1925-933): pure 67LR agonist
re-canalisation of areas of vaso-obliteration (C57-BL/6J mice; [5]): promotes re-canalisation of areas of vaso-obliteration
uncontrolled angiogenic response of ROP (C57-BL/6J mice; [5]): prevents the uncontrolled angiogenic response of ROP
development of ROP (C57-BL/6J mice; neonates, daily intraperitoneal injections of 10 μg): development of ROP can be prevented
angiogenesis in the chick [4]: inhibits angiogenesis in the chick
